Reference: patent US8030300B2, “Ligands for nicotinic acetylcholine receptors, and methods of making and using them” (priority 2003, dated 2011)
Like-named read-outs stand apart in the source and are kept apart here.

Assays:
Test in all cases: biochemical
Format in all cases: binding
[1] = target: T1, α4β4 nAChR subtype (Rattus norvegicus, UniProt P09483+P12392)
T1 construct: expressed in transfected cells
Excerpt: (§1) In order to assess the steric and hydropathic effects of the C-5 substituents of the pyridine on the binding affinity and subtype-selectivity at neuronal nicotinic acetylcholine receptors. […] The binding affinity ratios for a ligand, calculated from its affinities at an α subunit paired with either the β2 osubunit or the β4 subunit, represents a measure of the selectivity of that ligand with regard to the β subunits.

[2] = target: T2, α2β2 nAChR subtype (Rattus norvegicus, UniProt P12389+P12390)
T2 construct: expressed in transfected cells
Excerpt: as §1

[3] = target: T3, α3β2 nAChR subtype (Rattus norvegicus, UniProt P04757+P12390)
T3 construct: expressed in transfected cells
Excerpt: as §1

[4] = target: T4, α3β4 nAChR subtype (Rattus norvegicus, UniProt P04757+P12392)
T4 construct: expressed in transfected cells
Excerpt: as §1

[5] = target: T5, α2β4 nAChR subtype (Rattus norvegicus, UniProt P12389+P12392)
T5 construct: expressed in transfected cells
Excerpt: as §1

[6] = target: T6, α4β2 nAChR subtype (Rattus norvegicus, UniProt P09483+P12390)
T6 construct: expressed in transfected cells
Excerpt: as §1

[7] = target: T7, receptors in rat forebrain (mainly α4β2) (Rattus norvegicus, UniProt P09483+P12390)
T7 construct: from tissue; host or cells: rat forebrain homogenate
Excerpt: as §1
In Vitro Inhibition of ^3H-Epibatidin Binding
The high affinity binding site for ^3H-epibatidin is most certainly binding to the α4β2 subtype of nicotinic receptors. The identity of the low affinity site is still believed to be unknown.
Tissue preparation: Preparations may be performed at 0-4° C. unless otherwise indicated. […] The tissue suspension may then be centrifuged at 27,000×g for 10 min. The supernatant is then discarded and the pellet may then be washed three times by centrifugation at 27,000×g for 10 min in 20 mL fresh buffer, and the final pellet may be resuspended in fresh buffer (400 mL per g of original tissue) and used for binding assays.
Assay: Aliquots of 2.0 mL homogenate may be added to 0.100 mL of test solution and 0.100 mL of ^3H-epibatidin (0.3 nM, final concentration), mixed and incubated for 60 min at room temperature. […] The amount of radioactivity on the filters may be determined by conventional liquid scintillation counting. Specific binding is total binding minus non-specific binding.

[8] = Ki α4β2*, Table 5, *Rat forebrain, mainly α4β2
[9] = Ki α4β4, Table 5, rat nAChR subtypes
[10] = Ki α2β2, Table 5, rat nAChR subtypes
[11] = Ki α3β2, Table 5, rat nAChR subtypes
[12] = Ki α3β4, Table 5, rat nAChR subtypes
[13] = Ki α2β4, Table 5, rat nAChR subtypes
[14] = Ki α4β2, Table 5, rat nAChR subtypes
[15] = Table 5, rat nAChR subtypes, read-out: Ki α3β4
[16] = Ki α4β4, Table 4, bivalent analogues
[17] = Ki α2β2, Table 4, bivalent analogues
[18] = Ki α3β2, Table 4, bivalent analogues
[19] = Ki α3β4, Table 4, bivalent analogues
[20] = Ki α2β4, Table 4, bivalent analogues
[21] = Ki α4β2, Table 4, bivalent analogues

T7 sequence (P09483 31-630): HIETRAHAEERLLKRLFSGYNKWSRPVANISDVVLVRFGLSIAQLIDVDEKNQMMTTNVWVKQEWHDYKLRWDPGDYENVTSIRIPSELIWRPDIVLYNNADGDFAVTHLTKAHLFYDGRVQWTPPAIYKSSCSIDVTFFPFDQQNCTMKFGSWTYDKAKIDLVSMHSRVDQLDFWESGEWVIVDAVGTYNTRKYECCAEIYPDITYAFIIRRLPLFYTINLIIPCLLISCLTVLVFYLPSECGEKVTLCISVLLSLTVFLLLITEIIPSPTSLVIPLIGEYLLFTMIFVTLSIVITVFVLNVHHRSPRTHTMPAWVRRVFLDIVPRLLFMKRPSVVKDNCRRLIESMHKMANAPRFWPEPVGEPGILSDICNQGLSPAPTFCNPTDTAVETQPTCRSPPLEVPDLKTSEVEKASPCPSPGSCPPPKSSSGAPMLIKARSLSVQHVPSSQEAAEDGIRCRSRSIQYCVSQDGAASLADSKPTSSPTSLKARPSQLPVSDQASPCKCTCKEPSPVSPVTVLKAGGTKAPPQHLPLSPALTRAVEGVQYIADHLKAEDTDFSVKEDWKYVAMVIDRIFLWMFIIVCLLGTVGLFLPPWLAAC
T7 sequence (P12390 25-500): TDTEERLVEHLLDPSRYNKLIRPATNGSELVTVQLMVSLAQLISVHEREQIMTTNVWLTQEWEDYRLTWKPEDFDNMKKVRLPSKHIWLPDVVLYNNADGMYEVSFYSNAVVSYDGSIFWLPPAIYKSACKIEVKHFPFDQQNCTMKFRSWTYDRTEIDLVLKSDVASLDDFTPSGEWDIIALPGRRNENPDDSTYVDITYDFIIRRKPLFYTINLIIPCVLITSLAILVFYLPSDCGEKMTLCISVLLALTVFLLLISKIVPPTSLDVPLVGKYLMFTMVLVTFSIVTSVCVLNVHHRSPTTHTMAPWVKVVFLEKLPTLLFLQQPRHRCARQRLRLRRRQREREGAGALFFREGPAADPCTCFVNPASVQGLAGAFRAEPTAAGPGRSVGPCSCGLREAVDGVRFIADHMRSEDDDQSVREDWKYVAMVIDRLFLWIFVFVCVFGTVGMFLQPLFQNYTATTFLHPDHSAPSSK
T6 sequence (P12390 25-500): as above
T6 sequence (P09483 31-630): as the sequence (P09483 31-630) above
T3 sequence (P12390 25-500): as the sequence (P12390 25-500) above
T3 sequence (P04757 26-499): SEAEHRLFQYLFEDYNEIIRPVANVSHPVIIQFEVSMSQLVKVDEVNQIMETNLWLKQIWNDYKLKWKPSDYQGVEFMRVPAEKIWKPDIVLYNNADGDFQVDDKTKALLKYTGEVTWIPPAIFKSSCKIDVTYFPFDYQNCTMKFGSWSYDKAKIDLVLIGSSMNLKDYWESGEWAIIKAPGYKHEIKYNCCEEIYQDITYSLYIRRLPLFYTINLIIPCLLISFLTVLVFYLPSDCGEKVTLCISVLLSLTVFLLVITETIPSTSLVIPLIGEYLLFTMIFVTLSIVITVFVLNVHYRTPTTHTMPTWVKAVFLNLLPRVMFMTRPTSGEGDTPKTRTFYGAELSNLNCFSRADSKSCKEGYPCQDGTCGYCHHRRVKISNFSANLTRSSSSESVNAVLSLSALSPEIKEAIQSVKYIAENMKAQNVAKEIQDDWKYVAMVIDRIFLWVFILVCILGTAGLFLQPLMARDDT
T2 sequence (P12390 25-500): as the sequence (P12390 25-500) above
T2 sequence (P12389 28-511): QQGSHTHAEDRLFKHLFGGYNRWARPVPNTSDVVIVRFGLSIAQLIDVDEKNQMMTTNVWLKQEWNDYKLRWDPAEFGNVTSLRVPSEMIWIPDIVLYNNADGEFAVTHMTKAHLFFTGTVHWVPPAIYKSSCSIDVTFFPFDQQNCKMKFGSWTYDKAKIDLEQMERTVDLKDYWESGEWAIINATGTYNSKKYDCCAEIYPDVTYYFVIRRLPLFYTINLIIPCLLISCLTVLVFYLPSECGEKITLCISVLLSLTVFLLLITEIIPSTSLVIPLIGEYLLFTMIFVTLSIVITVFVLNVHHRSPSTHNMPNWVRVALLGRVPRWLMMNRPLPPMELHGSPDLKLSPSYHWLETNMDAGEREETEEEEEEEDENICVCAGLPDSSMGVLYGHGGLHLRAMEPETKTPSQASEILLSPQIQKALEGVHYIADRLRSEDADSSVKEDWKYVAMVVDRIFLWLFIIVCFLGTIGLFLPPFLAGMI
T5 sequence (P12389 28-511): as above
T5 sequence (P12392 21-495): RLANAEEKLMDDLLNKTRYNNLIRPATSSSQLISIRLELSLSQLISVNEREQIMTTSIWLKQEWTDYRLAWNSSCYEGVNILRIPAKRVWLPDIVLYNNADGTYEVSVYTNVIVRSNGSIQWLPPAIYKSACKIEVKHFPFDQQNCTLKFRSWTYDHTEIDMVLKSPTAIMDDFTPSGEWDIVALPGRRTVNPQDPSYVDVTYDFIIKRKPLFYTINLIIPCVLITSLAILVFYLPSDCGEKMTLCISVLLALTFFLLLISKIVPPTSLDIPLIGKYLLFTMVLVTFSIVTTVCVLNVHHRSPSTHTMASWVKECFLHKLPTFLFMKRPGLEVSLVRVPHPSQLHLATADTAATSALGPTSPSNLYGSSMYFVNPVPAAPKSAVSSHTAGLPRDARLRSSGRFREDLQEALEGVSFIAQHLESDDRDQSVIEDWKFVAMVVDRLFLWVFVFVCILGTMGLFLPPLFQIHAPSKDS
T1 sequence (P12392 21-495): as above
T1 sequence (P09483 31-630): as the sequence (P09483 31-630) above
T4 sequence (P04757 26-499): as the sequence (P04757 26-499) above
T4 sequence (P12392 21-495): as the sequence (P12392 21-495) above

O=C1CC2CC(c3ccc(Cl)nc3)C1N2 (racemic) [Ligand 5]
Ki ([1]; read-out: Ki α4β4): 3560 nM
Ki ([2]; read-out: Ki α2β2): 1010 nM
Ki ([3]; read-out: Ki α3β2): 1500 nM
Ki ([4]; read-out: Ki α3β4): 8870 nM
Ki ([5]; read-out: Ki α2β4): 3240 nM
Ki ([6]; read-out: Ki α4β2): 2020 nM

OC1CC2CC(c3ccc(Cl)nc3)C1N2 (racemic) [Ligand 9]
Ki ([1]; read-out: Ki α4β4): 5.57 nM
Ki ([2]; read-out: Ki α2β2): 1.53 nM
Ki ([3]; read-out: Ki α3β2): 1.36 nM
Ki ([4]; read-out: Ki α3β4): 27.3 nM
Ki ([5]; read-out: Ki α2β4): 5.85 nM
Ki ([6]; read-out: Ki α4β2): 0.92 nM

O[C@H]1[C@H](c2ccc(Cl)nc2)[C@H]2CC[C@@H]1N2 (relative stereo) [Ligand 3]
Ki ([1]; Ki α4β4): 11.2 nM
Ki ([2]; Ki α2β2): 2.5 nM
Ki ([3]; Ki α3β2): 7.3 nM
Ki ([4]; Ki α3β4): 39.1 nM
Ki ([5]; Ki α2β4): 15.3 nM
Ki ([6]; Ki α4β2): 2.9 nM

O[C@H]1C[C@H]2N[C@@H]1C[C@@H]2c1ccc(Cl)nc1 (relative stereo) [Ligand 6, 2-exo-(2-Chloro-5-pyridyl)-5-exo-hydroxyl-7-azabicyclo[2.2.1]heptane]
Ki [7, 8]: 69 nM
Ki [1, 9]: 72.7 nM
Ki [2, 10]: 16.9 nM
Ki [3, 11]: 19.3 nM
Ki [4, 12]: 224 nM
Ki [5, 13]: 67.5 nM

O[C@H]1C[C@H]2C[C@H](c3ccc(Cl)nc3)[C@@H]1N2 (relative stereo) [Ligand 9, 2-exo-(2-Chloro-5-pyridyl)-6-endo-hydroxyl-7-azabicyclo[2.2.1]heptane]
Ki [7, 8]: 4.11 nM
Ki [1, 9]: 5.57 nM
Ki [2, 10]: 1.53 nM
Ki [3, 11]: 1.36 nM
Ki [4, 12]: 27.3 nM
Ki [5, 13]: 5.85 nM
Ki [6, 14]: 0.916 nM

OC1C2CCC(N2)C1c1ccc(Cl)nc1 (single isomer, unassigned) [Ligand 2]
Ki [7, 8]: 2060 nM
Ki [1, 9]: 515 nM
Ki [2, 10]: 814 nM
Ki [3, 11]: 1130 nM
Ki [4, 12]: 1170 nM
Ki [5, 13]: 617 nM
Ki [6, 14]: 2370 nM

OC1C2CCC(N2)C1c1ccc(Cl)nc1 (single isomer, unassigned) [Ligand 3, 2-exo-(2-Chloro-5-pyridyl)-3-endo-hydroxyl-7-azabicyclo[2.2.1]heptane]
Ki [7, 8]: 4.79 nM
Ki [1, 9]: 11.2 nM
Ki [2, 10]: 2.49 nM
Ki [3, 11]: 7.31 nM
Ki [4, 12]: 39.1 nM
Ki [5, 13]: 15.3 nM
Ki [6, 14]: 2.92 nM

O=c1cccc2n1C[C@@H]1CNC[C@H]2C1 [Cytisine, reference compound]
Ki [7]: 2.57 nM
Ki [1]: 1.52 nM
Ki [2]: 0.571 nM
Ki [3]: 8.06 nM
Ki [4, 15]: 210 nM
Ki [5]: 3.51 nM
Ki [6]: 1.35 nM

O=C1CC2NC1CC2c1ccc(Cl)nc1 (stereo not drawn) [Ligand 4, 2-exo-(2-Chloro-5-pyridyl)-7-azabicyclo[2.2.1]heptan-5-one]
Ki [7, 8]: 4570 nM
Ki [1, 9]: 3240 nM
Ki [2, 10]: 642 nM
Ki [3, 11]: 1890 nM
Ki [4, 12]: 4430 nM
Ki [5, 13]: 1140 nM
Ki [6, 14]: 7080 nM

O=C1CC2CC(c3ccc(Cl)nc3)C1N2 (stereo not drawn) [Ligand 5, 2-exo-(2-Chloro-5-pyridyl)-7-azabicyclo[2.2.1]heptan-6-one]
Ki [7, 8]: 1350 nM
Ki [1, 9]: 3560 nM
Ki [2, 10]: 1010 nM
Ki [3, 11]: 1500 nM
Ki [4, 12]: 8870 nM
Ki [5, 13]: 3240 nM
Ki [6, 14]: 2020 nM

OC1CC2NC1CC2c1ccc(Cl)nc1 (stereo not drawn) [Ligand 7, 2-exo-(2-Chloro-5-pyridyl)-5-endo-hydroxyl-7-azabicyclo[2.2.1]heptane]
Ki [7, 8]: 134 nM
Ki [1, 9]: 247 nM
Ki [2, 10]: 93.7 nM
Ki [3, 11]: 285 nM
Ki [4, 12]: 916 nM
Ki [5, 13]: 238 nM
Ki [6, 14]: 70.9 nM

OC1CC2CC(c3ccc(Cl)nc3)C1N2 (stereo not drawn) [Ligand 8, 2-exo-(2-Chloro-5-pyridyl)-6-exo-hydroxyl-7-azabicyclo[2.2.1]heptane]
Ki [7, 8]: 22.9 nM
Ki [1, 9]: 45.6 nM
Ki [2, 10]: 6.3 nM
Ki [3, 11]: 8.88 nM
Ki [4, 12]: 144 nM
Ki [5, 13]: 39.7 nM
Ki [6, 14]: 12.6 nM

CN1CCC[C@H]1COc1cccnc1 [Ligand 8, 3-(1-Methyl-2(S)-pyrrolidinylmethoxy)pyridine, reference compound]
Ki ([7]; Ki α4β2**, Table 6, **Forebrain mainly α4β2, [3H]-EB 0.099 nM, 0.091 nM, n = 1): 5.15 nM
Ki [7, 8]: 5.15 nM
Ki [1, 9]: 205 nM
Ki ([1]; Ki α4β4, Table 6, [3H]-EB 0.099 nM, 0.091 nM, ligand 0.00197-100 μM, n = 1): 205 nM
Ki [2, 10]: 1.07 nM
Ki ([2]; Ki α2β2, Table 6, [3H]-EB 0.099 nM, 0.091 nM, ligand 0.00197-100 μM, n = 1): 1.07 nM
Ki [3, 11]: 9.04 nM
Ki ([3]; Ki α3β2, Table 6, [3H]-EB 0.099 nM, 0.091 nM, ligand 0.00197-100 μM, n = 1): 9.04 nM
Ki [4, 12]: 835 nM
Ki ([4]; Ki α3β4, Table 6, [3H]-EB 0.099 nM, 0.091 nM, ligand 0.00197-100 μM, n = 1): 835 nM
Ki [5, 13]: 209 nM
Ki ([5]; Ki α2β4, Table 6, [3H]-EB 0.099 nM, 0.091 nM, ligand 0.00197-100 μM, n = 1): 209 nM
Ki [6, 14]: 1.4 nM
Ki ([6]; Ki α4β2, Table 6, [3H]-EB 0.099 nM, 0.091 nM, ligand 0.00197-100 μM, n = 1): 1.4 nM

FC1CC2NC1CC2c1ccc(Cl)nc1 (stereo not drawn) [Ligand 10, 2-exo-(2-Chloro-5-pyridyl)-5-exo-fluoro-7-azabicyclo[2.2.1]heptane]
Ki [7, 8]: 2.11 nM
Ki [1, 9]: 1.23 nM
Ki [2, 10]: 0.864 nM
Ki [3, 11]: 0.646 nM
Ki [4, 12]: 10.4 nM
Ki [5, 13]: 5.59 nM
Ki [6, 14]: 1.73 nM

FC1CC2CC(c3ccc(Cl)nc3)C1N2 (stereo not drawn) [Ligand 11, 2-exo-(2-Chloro-5-pyridyl)-6-fluoro-7-azabicyclo[2.2.1]heptane]
Ki [7, 8]: 0.668 nM
Ki [1, 9]: 0.172 nM
Ki [2, 10]: 0.218 nM
Ki [3, 11]: 0.149 nM
Ki [4, 12]: 2.48 nM
Ki [5, 13]: 0.481 nM
Ki [6, 14]: 0.328 nM

CCCCC#Cc1cncc(OC[C@@H]2CCCN2C)c1 [Ligand 12, 5-(1-Hexynyl)-3-(1-methyl-2(S)-pyrrolidinylmethoxy)pyridine]
Ki ([7]; Table 5, *Rat forebrain, mainly α4β2, read-out: Ki α4β2*): 6.81 nM
Ki ([1]; Table 5, rat nAChR subtypes, read-out: Ki α4β4): 1410 nM
Ki ([2]; Table 5, rat nAChR subtypes, read-out: Ki α2β2): 13.4 nM
Ki ([3]; Table 5, rat nAChR subtypes, read-out: Ki α3β2): 20.3 nM
Ki [4, 15]: 9560 nM
Ki ([5]; Table 5, rat nAChR subtypes, read-out: Ki α2β4): 1720 nM
Ki ([6]; Table 5, rat nAChR subtypes, read-out: Ki α4β2): 2.61 nM

OCCCCC#Cc1cncc(OC[C@@H]2CCN2)c1 [Ligand 26, 5-(6-Hydroxy-1-hexynyl)-3-(2(S)-azetidinylmethoxy)pyridine]
Ki [1, 9]: 74 nM
Ki [2, 10]: 0.06 nM
Ki [3, 11]: 0.53 nM
Ki [4, 12]: 4840 nM
Ki [5, 13]: 269 nM
Ki [6, 14]: 0.09 nM

Clc1ccc(C2CC3CCC2N3CCN2C3CCC2C(c2ccc(Cl)nc2)C3)cn1 (stereo not shown) [Ligand 59a]
Ki [1, 16]: 18 nM
Ki [2, 17]: 1.3 nM
Ki [3, 18]: 5.6 nM
Ki [4, 19]: 11.8 nM
Ki [5, 20]: 2.9 nM
Ki [6, 21]: 10.7 nM

Clc1ccc(C2CC3CCC2N3CCCN2C3CCC2C(c2ccc(Cl)nc2)C3)cn1 (stereo not shown) [Ligand 59b]
Ki [1, 16]: 23.3 nM
Ki [2, 17]: 6.1 nM
Ki [3, 18]: 5.2 nM
Ki [4, 19]: 62.9 nM
Ki [5, 20]: 15.7 nM
Ki [6, 21]: 8.7 nM

Clc1ccc(C2CC3CCC2N3CCCCCCN2C3CCC2C(c2ccc(Cl)nc2)C3)cn1 (stereo not shown) [Ligand 59c]
Ki [1, 16]: 31.9 nM
Ki [2, 17]: 4.1 nM
Ki [3, 18]: 6.6 nM
Ki [4, 19]: 64.7 nM
Ki [5, 20]: 37.4 nM
Ki [6, 21]: 7.2 nM

Clc1ccc(C2CC3CCC2N3CCCCCCCCCCN2C3CCC2C(c2ccc(Cl)nc2)C3)cn1 (stereo not shown) [Ligand 59d]
Ki [1, 16]: 18.7 nM
Ki [2, 17]: 5.8 nM
Ki [3, 18]: 6.8 nM
Ki [4, 19]: 67.7 nM
Ki [5, 20]: 24.2 nM
Ki [6, 21]: 10.3 nM

C#Cc1cncc([C@@H]2CCCN2C)c1 [SIB-1508Y, reference compound]
Ki ([1]; read-out: Ki α4β4): 3240 nM
Ki ([2]; read-out: Ki α2β2): 642 nM
Ki ([3]; read-out: Ki α3β2): 1890 nM
Ki ([4]; read-out: Ki α3β4): 4430 nM
Ki ([5]; read-out: Ki α2β4): 1140 nM
Ki ([6]; read-out: Ki α4β2): 7080 nM
